Patent publication US11241455B2, “Methods of treating disease by metabolic control of T-cell differentiation” (The J. David Gladstone Institutes, a testamentary trust …, priority 2016, dated 2022)

Tested on: differentiating TH17 cells
Test: 15N-α-glutamine flux analysis (transamination) in differentiating TH17 cells
Assay type: cell-based, mouse
Protocol: CD4 naïve T cells, differentiating TH17 or iTreg cells (68 hours) were incubated with fresh media prior to labeling. The cells were then cultured for 4 hours at 37° C. with medium where the glutamine was replaced with the corresponding stable isotope label: 2 mM U-^13C glutamine or 2 mM ^15N-α-glutamine for 4 hours at 37° C. The cells were quickly collected and quickly washed with phosphate buffer saline (PBS), pelleted, and snap frozen in liquid nitrogen. The frozen samples were kept in −80° C. until extraction. Cell extracts were prepared by first adding 80/20 MeOH/H2O at −60° C. to the frozen pellets and collecting the supernatant after centrifugation at 4° C. The extracted samples were analyzed by high-resolution liquid-chromatography-mass spectrometry. Unlabeled glutamine-fed cells were used as background.
For amino acid profiling: The ultra-high pressure liquid chromatography (U-HPLC) system consisted of a Thermo Fisher Scientific (San Jose, USA) U-HPLC pumping system, coupled to an autosampler and degasser. Chromatographic separation of the intracellular metabolites was achieved by usage of a reversed phase Atlantis® T3 (3 μm, 2.1 mm ID×150 mm) column (Waters, Eschborn, Germany) and by implementation of a gradient elution program. […]

Q: For `NOCC(=O)O` [AOA, (aminooxy)-acetic acid], which “reduction of total intracellular 15N-α-aspartate” value (differentiating TH17 cells fed 2 mM 15N-α-glutamine for 4 hours) is on record?
A: 90%

Q: And the “de novo synthesis for several amino acids (15N label incorporation)” value (differentiating TH17 cells, 2 mM 15N-α-glutamine for 4 hours)?
A: significant decreases
